Data as given in US20260347353A1, “INDOLIZINE DERIVATIVES FOR TREATING CANCER” (Antares Therapeutics, Inc., priority 2022, published 2026).

Legend:
p53 Y220C = p53 Y220C (Homo sapiens, UniProt P04637, Y220C); experiment: Luciferase Reporter Assay, p53 Y220C (NCIH1299 cells with inducible p53 Y220C and p53 response element-luciferase); format: cell-based; details: 6 hour compound treatment, read-out: Luc P53 Y220C AC50
Summary of the method: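 NCI-H1299 cells stably carrying a p53 response element-luciferase reporter and Tet-inducible p53 Y220C were induced with 0.5 ug/mL doxycycline for 24 h, then treated with compound for 6 h. Luminescence was read after One-Glo addition. AC50 was derived relative to 10 uM tool compound as positive control.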

[1] = biological target: T1, p53 Y220C mutant protein (amino acid residues 94-293) (Homo sapiens, UniProt P04637, Y220C); experiment: Surface Plasmon Resonance (SPR) assay, p53 Y220C Kd_kinetic; details: multi-cycle kinetics, 16 or 20 °C, pH 7.5, 1:1 binding model
T1 construct: p53 Y220C mutant protein (amino acid residues 94-293)
T1 sequence (P04637 94-293, stated change not applied): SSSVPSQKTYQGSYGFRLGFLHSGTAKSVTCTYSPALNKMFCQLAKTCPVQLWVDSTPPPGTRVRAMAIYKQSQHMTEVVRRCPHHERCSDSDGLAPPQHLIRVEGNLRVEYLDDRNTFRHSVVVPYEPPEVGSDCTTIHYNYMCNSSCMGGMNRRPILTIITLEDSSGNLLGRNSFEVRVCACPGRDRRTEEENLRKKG
Summary of the method: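 Kd from multi-cycle SPR kinetics fitted to a 1:1 model, using 2-fold, 7-point compound series over p53 Y220C (residues 94-293). Flow 30 μL/min, 60 s association, 120 s dissociation, at 16 or 20 °C in 50 mM Tris pH 7.5, 100 mM NaCl, 1 mM DTT, 0.01% Brij35, 0.05% Tween-20, 1% DMSO.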

NUGC3 cells (p53 Y220C) = experiment: Cell Proliferation Assay (CellTiter-Glo), NUGC3 p53 Y220C; format: cell-based; details: Homo sapiens, NUGC-3, 120 h, 5 days, read-out: CTG NUGC3 P53 Y220C IC50
Summary of the method: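 Seeded at 250–500 cells/well, then compound-treated for 5 days; the NCIH1299 lines carry Tet-One inducible p53 Y220C or R273H transduced lentivirally. Viability by CellTiter-Glo luminescence after 10 min at room temperature; IC50 calculated.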

[2] = system: NCIH1299-inducible p53 Y220C cells; experiment: Cell Proliferation Assay (CellTiter-Glo), NCIH1299-inducible p53 Y220C; format: cell-based; details: Homo sapiens, NCI-H1299, 120 h, 5 days, read-out: CTG H1299 P53 Y220C IC50
Protocol: Inducible p53 Y220C and R273H constructs (Tet-One inducible expression system; Takara) were stably expressed in NCIH1299 cells by lentiviral transduction. NUGC3, A549, BxPC3, T3M4, HuH7, HCC2935, MFE296, NCIH1299, NCIH1299-inducible p53 Y220C, and NCIH1299-inducible p53 R273H cell lines were used for cell proliferation assay. 250-500 cells were seeded in each well of 384 plate and then compounds were dispensed into each well using Echo or Tecan. After 5 days of incubation, equal volume of CellTiter-Glo reagent (G7570; Promega) was added into each well and the plate was incubated at room temperature for 10 minutes with shaking. The luminescent signal was measured by PheraStar microplate reader and IC50 was calculated.

| Structure (SMILES) | AC50 (p53 Y220C) [nM] | Kd [1] [nM] | IC50 (NUGC3 cells (p53 Y220C)) [nM] | IC50 [2] [nM] |
| --- | --- | --- | --- | --- |
| CN1CC[C@@H](Nc2cccn3c(SC(F)(F)F)c(-c4noc(CNC(=O)c5ccc6c(c5)NC(=O)CN6C)n4)cc23)[C@@H](F)C1 [Example 23, N-{[3-(8-{[(3S,4R)-3-fluoro-1-methylpiperidin-4-yl]amino}-3-[(trifluoromethyl)sulfanyl]indolizin-2-yl)-1,2,4-oxadiazol-5-yl]methyl}-1-methyl-3-oxo-2,4-dihydroquinoxaline-6-carboxamide] | < 750 | < 10 | < 750 | < 750 |
| CN1CC[C@@H](Nc2cccn3c(SC(F)(F)F)c(-c4noc(CNC(=O)c5ccns5)n4)cc23)[C@@H](F)C1 [Example 27, N-{[3-(8-{[(3S,4R)-3-fluoro-1-methylpiperidin-4-yl]amino}-3-[(trifluoromethyl)sulfanyl]indolizin-2-yl)-1,2,4-oxadiazol-5-yl]methyl}-1,2-thiazole-5-carboxamide] | < 750 | < 10 | < 750 | 750 to 1500 |
| Cc1ccsc1C(=O)NCc1nc(-c2cc3c(N[C@@H]4CCN(C)C[C@@H]4F)cccn3c2SC(F)(F)F)no1 [Example 30, N-{[3-(8-{[(3S,4R)-3-fluoro-1-methylpiperidin-4-yl]amino}-3-[(trifluoromethyl)sulfanyl]indolizin-2-yl)-1,2,4-oxadiazol-5-yl]methyl}-3-methylthiophene-2-carboxamide] | 750 to 1500 | 10 to 100 | 1500 to 3000 | 1500 to 3000 |
| CN1CC[C@@H](Nc2cccn3c(SC(F)(F)F)c(-c4noc(CNC(=O)c5sccc5F)n4)cc23)[C@@H](F)C1 [Example 32, 3-fluoro-N-{[3-(8-{[(3S,4R)-3-fluoro-1-methylpiperidin-4-yl]amino}-3-[(trifluoromethyl)sulfanyl]indolizin-2-yl)-1,2,4-oxadiazol-5-yl]methyl}thiophene-2-carboxamide] | < 750 | < 10 | < 750 | < 750 |
| CN1CC[C@@H](Nc2cccn3c(SC(F)(F)F)c(-c4noc(CNC(=O)c5sccc5N)n4)cc23)[C@@H](F)C1 [Example 33, 3-amino-N-{[3-(8-{[(3S,4R)-3-fluoro-1-methylpiperidin-4-yl]amino}-3-[(trifluoromethyl)sulfanyl]indolizin-2-yl)-1,2,4-oxadiazol-5-yl]methyl}thiophene-2-carboxamide] | < 750 | < 10 | < 750 | < 750 |
| COc1ccc2nc(C(=O)NCc3nc(-c4cc5c(N[C@@H]6CCN(C)C[C@@H]6F)cccn5c4SC(F)(F)F)no3)ccc2c1 [Example 34, N-{[3-(8-{[(3S,4R)-3-fluoro-1-methylpiperidin-4-yl]amino}-3-[(trifluoromethyl)sulfanyl]indolizin-2-yl)-1,2,4-oxadiazol-5-yl]methyl}-6-methoxyquinoline-2-carboxamide] | ≥ 3000 | 10 to 100 | 1500 to 3000 | 1500 to 3000 |
| COc1ccc2cc(C(=O)NCc3nc(-c4cc5c(N[C@@H]6CCN(C)C[C@@H]6F)cccn5c4SC(F)(F)F)no3)n(C)c2c1 [Example 35, N-{[3-(8-{[(3S,4R)-3-fluoro-1-methylpiperidin-4-yl]amino}-3-[(trifluoromethyl)sulfanyl]indolizin-2-yl)-1,2,4-oxadiazol-5-yl]methyl}-6-methoxy-1-methylindole-2-carboxamide] | ≥ 3000 | 10 to 100 | 1500 to 3000 | 1500 to 3000 |
| COc1csc(C(=O)NCc2nc(-c3cc4c(N[C@@H]5CCN(C)C[C@@H]5F)cccn4c3SC(F)(F)F)no2)c1 [Example 37, N-{[3-(8-{[(3S,4R)-3-fluoro-1-methylpiperidin-4-yl]amino}-3-[(trifluoromethyl)sulfanyl]indolizin-2-yl)-1,2,4-oxadiazol-5-yl]methyl}-4-methoxythiophene-2-carboxamide] | < 750 | < 10 | < 750 | < 750 |
| CN1CC[C@@H](Nc2cccn3c(SC(F)(F)F)c(-c4noc(CNC(=O)c5cc(C#N)cs5)n4)cc23)[C@@H](F)C1 [Example 38, 4-cyano-N-{[3-(8-{[(3S,4R)-3-fluoro-1-methylpiperidin-4-yl]amino}-3-[(trifluoromethyl)sulfanyl]indolizin-2-yl)-1,2,4-oxadiazol-5-yl]methyl}thiophene-2-carboxamide] | 750 to 1500 | 10 to 100 | < 750 | < 750 |
| CN1CC[C@@H](Nc2cccn3c(SC(F)(F)F)c(-c4noc(CNC(=O)c5ccc(C#N)s5)n4)cc23)[C@@H](F)C1 [Example 39, 5-cyano-N-{[3-(8-{[(3S,4R)-3-fluoro-1-methylpiperidin-4-yl]amino}-3-[(trifluoromethyl)sulfanyl]indolizin-2-yl)-1,2,4-oxadiazol-5-yl]methyl}thiophene-2-carboxamide] | 750 to 1500 | 10 to 100 | < 750 | < 750 |
| CN1CC[C@@H](Nc2cccn3c(SC(F)(F)F)c(-c4noc(CNC(=O)c5ccc6ncsc6c5)n4)cc23)[C@@H](F)C1 [Example 40, N-{[3-(8-{[(3S,4R)-3-fluoro-1-methylpiperidin-4-yl]amino}-3-[(trifluoromethyl)sulfanyl]indolizin-2-yl)-1,2,4-oxadiazol-5-yl]methyl}-1,3-benzothiazole-6-carboxamide] | < 750 | 10 to 100 | < 750 | < 750 |
| CN1CC[C@@H](Nc2cccn3c(SC(F)(F)F)c(-c4noc(CNC(=O)c5sccc5OC(F)F)n4)cc23)[C@@H](F)C1 [Example 41, 3-(difluoromethoxy)-N-{[3-(8-{[(3S,4R)-3-fluoro-1-methylpiperidin-4-yl]amino}-3-[(trifluoromethyl)sulfanyl]indolizin-2-yl)-1,2,4-oxadiazol-5-yl]methyl}thiophene-2-carboxamide] | 750 to 1500 | 10 to 100 | 750 to 1500 | 750 to 1500 |

More lines, main results first:

| AC50 (p53 Y220C) [nM] | Kd [1] [nM] | Structure (SMILES) | IC50 (NUGC3 cells (p53 Y220C)) [nM] | IC50 [2] [nM] |
| --- | --- | --- | --- | --- |
| < 750 | < 10 | CN1CC[C@@H](Nc2cccn3c(SC(F)(F)F)c(-c4noc(CNC(=O)C5(O)CC5)n4)cc23)[C@@H](F)C1 [Example 24, N-{[3-(8-{[(3S,4R)-3-fluoro-1-methylpiperidin-4-yl]amino}-3-[(trifluoromethyl)sulfanyl]indolizin-2-yl)-1,2,4-oxadiazol-5-yl]methyl}-1-hydroxycyclopropane-1-carboxamide] | 750 to 1500 | 750 to 1500 |
| 1500 to 3000 | < 10 | CN1CC[C@@H](Nc2cccn3c(SC(F)(F)F)c(-c4noc(CNC(=O)C5COC5)n4)cc23)[C@@H](F)C1 [Example 25, N-{[3-(8-{[(3S,4R)-3-fluoro-1-methylpiperidin-4-yl]amino}-3-[(trifluoromethyl)sulfanyl]indolizin-2-yl)-1,2,4-oxadiazol-5-yl]methyl}oxetane-3-carboxamide] | 1500 to 3000 | 1500 to 3000 |
| 1500 to 3000 | 10 to 100 | COC1(C(=O)NCc2nc(-c3cc4c(N[C@@H]5CCN(C)C[C@@H]5F)cccn4c3SC(F)(F)F)no2)CC1 [Example 26, N-{[3-(8-{[(3S,4R)-3-fluoro-1-methylpiperidin-4-yl]amino}-3-[(trifluoromethyl)sulfanyl]indolizin-2-yl)-1,2,4-oxadiazol-5-yl]methyl}-1-methoxycyclopropane-1-carboxamide] | 1500 to 3000 | 1500 to 3000 |
| 750 to 1500 | < 10 | CN1CC[C@@H](Nc2cccn3c(SC(F)(F)F)c(-c4noc(CNC(=O)[C@H]5COCCO5)n4)cc23)[C@@H](F)C1 [Example 29] | 750 to 1500 | 750 to 1500 |
| < 750 | < 10 | CN1CC[C@@H](Nc2cccn3c(SC(F)(F)F)c(-c4noc(CNC(=O)C#CC5(C)CC5)n4)cc23)[C@@H](F)C1 [Example 31, N-{[3-(8-{[(3S,4R)-3-fluoro-1-methylpiperidin-4-yl]amino}-3-[(trifluoromethyl)sulfanyl]indolizin-2-yl)-1,2,4-oxadiazol-5-yl]methyl}-3-(1-methylcyclopropyl)prop-2-ynamide] | < 750 | < 750 |
| 1500 to 3000 | 10 to 100 | CN1CC[C@@H](Nc2cccn3c(SC(F)(F)F)c(-c4noc(CNC(=O)C5(F)CCOCC5)n4)cc23)[C@@H](F)C1 [Example 36, 4-fluoro-N-{[3-(8-{[(3S,4R)-3-fluoro-1-methylpiperidin-4-yl]amino}-3-[(trifluoromethyl)sulfanyl]indolizin-2-yl)-1,2,4-oxadiazol-5-yl]methyl}oxane-4-carboxamide] | 1500 to 3000 | 1500 to 3000 |
